Columns and labels:
[1] = system: Foxp3+CD4+ population of T cells; experiment: Flow cytometry of Tregs in splenocytes of EAE mice; format: in vivo; conditions: FIG. 7A-D
Experimental: Two-color flow cytometry was performed as described previously. Briefly, 1×10^6 lymph node cells (LNC) or splenocytes suspended in flow staining buffer were incubated at 4° C. with appropriately diluted FITC-labeled Ab to CD4 for 30 min, washed, and re-suspended in fixation and permeabilization solution. Following incubation in dark for 30 min, cells were washed, blocked with test Fc block (anti-mouse CD16/32) in permeabilization buffer, and subsequently incubated with appropriately diluted PE-labeled Abs to Foxp3 at 4° C. in the dark. After incubation, the cell suspension was centrifuged, washed thrice, and re-suspended in flow staining buffer. The cells then were analyzed through FACS (BD Biosciences, San Jose, Calif.). Cells were gated based on morphological characteristics. Apoptotic and necrotic cells were not accepted for FACS analysis.
Since TGF-β is involved in the differentiation of non-Tregs into Tregs, the inventor monitored the status of Tregs in EAE mice. A major population of Tregs is characterized by a transcription factor FoxP3. During autoimmune insults, Tregs become both numerically and functionally defective. Therefore, as expected, the inventor observed significant reduction in Foxp3+CD4+ population of T cells in EAE splenocytes as evident from FACS dot plot (FIG. 7A-B). […]

[2] = system: blood-brain barrier and blood-spinal cord barrier; experiment: Integrity of BBB and BSB, infrared dye (Alexa-680) entry into CNS of EAE mice; format: in vivo
Text: BBB and BSB are membranic structures that act primarily to protect the brain and the spinal cord, respectively from chemicals in the blood, while still allowing some essential molecules to enter. It is known that during active MS and EAE, BBB and BSB break down in a section of the brain and spinal cord, respectively due to widespread inflammation thereby allowing different blood molecules and toxins enter into the CNS. Therefore, the inventor investigated if GTB treatment modulated the integrity of BBB and BSB. The inventor injected an infrared dye (Alexa-680) via tail-vein and 2 h after the injection, live mice were scanned in an Odyssey infra-red scanner. As evidenced from FIG. 3A (first lane), infra-red signals were not visible on areas over the brain and the spinal cord in control HBSS-injected mice. […] In FIG. 3C, the top row relates to the frontal cortex, the middle row relates to the midbrain, and the last row relates to the cerebellum. In FIG. 3D, the first column relates to the control, the second column relates to EAE, the third column relates to EAE+GTB, the fourth column relates to EAE+Vehicle, and the y-axis is density of infrared signal.

For O=C(OCC(COC(=O)c1ccccc1)OC(=O)c1ccccc1)c1ccccc1 [GTB, glyceryl tribenzoate], the “Foxp3+CD4+ population in splenocytes” value [1] was “led to the increase in Foxp3+CD4+ population”, the “entry of infra-red dye into the CNS, live mice” value ([2]; scan 2 h after tail-vein injection of Alexa-680, FIG. 3A) was “strongly inhibited the entry of infra-red dye into the CNS” and the “entry of infra-red dye into spinal cord and parts of the brain, dissected tissue” value ([2]; spinal cord, frontal cortex, midbrain, cerebellum, FIG. 3B-D) was “markedly attenuated the entry of infra-red dye”.
